One assay deals with Cbl-b (Homo sapiens (Human), UniProt Q13191). In words: Cbl-b displacement assay (Cbl-b inhibition assay), Biological Example 8. The settings on record: 0.125 nM Cbl-b final concentration (Low); Table 8-1; read-out: Cbl-b IC50 (Low). Format: binding. In a few lines: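 Biotinylated Avitag-Cbl-b (residues 36-427) at 0.5 nM ("High") or 0.125 nM ("Low") final was preincubated 1 h at room temperature with compound (1% DMSO) in 20 mM HEPES pH 7.5, 150 mM NaCl, 0.01% Triton X-100, 0.01% BSA, 0.5 mM TCEP. Then 150 nM BODIPY FL inhibitor probe (~EC40) plus 2 nM streptavidin-terbium, 1 h; TR-FRET 520/620 read, IC50 derived.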
Cbl-b, sequence (Q13191 36-427): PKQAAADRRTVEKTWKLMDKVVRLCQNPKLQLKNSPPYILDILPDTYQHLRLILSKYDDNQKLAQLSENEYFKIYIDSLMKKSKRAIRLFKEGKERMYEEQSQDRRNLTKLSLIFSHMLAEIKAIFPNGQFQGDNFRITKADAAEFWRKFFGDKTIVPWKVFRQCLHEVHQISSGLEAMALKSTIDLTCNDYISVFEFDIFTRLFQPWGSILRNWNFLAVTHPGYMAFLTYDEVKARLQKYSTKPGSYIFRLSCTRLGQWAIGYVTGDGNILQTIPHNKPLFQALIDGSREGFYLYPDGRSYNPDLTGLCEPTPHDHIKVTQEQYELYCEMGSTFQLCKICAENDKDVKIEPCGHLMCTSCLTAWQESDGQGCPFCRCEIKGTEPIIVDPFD

For a further assay, the system named is TC-1 cells. The experiment in a line: Compound 8 with HPV16 vaccine in TC-1 syngeneic mouse model, Biological Example 16. Format: in vivo. The settings on record: TC-1 tumor-bearing mice. The protocol: Mice were implanted with 50,000 TC-1 cells/mouse subcutaneously into the right flank (at Day Zero (D0)). Thirteen days later (D13), when tumors measured approximately 50-100 mm^3, mice from appropriate groups (10 mice per group) were injected with HPV16 vaccine (s.c., total 2 doses, at D13 and Day 20 (D20)). […] Mice were euthanized when tumor exceeded 1500-2000 mm^3, according to IACUC guidelines. Survival was compared using GraphPad Prism using log-rank (Mantel-Cox) test. **=p<0.005 of treatment vs. Vehicle+Vaccine control group at Day 61.
TC-1 cells were derived by stable transfection of mouse lung epithelial cells with human papillomavirus strain 16 (HPV16) early proteins 6 and 7 (E6 and E7) and activated h-ras oncogene. Cells were obtained from Dr. T-C Wu (Johns Hopkins University). (Lin K Y, Guarnieri F G, Staveley-O'Carroll K F, Levitsky H I, August J T, Pardoll D M, et al. Treatment of established tumors with a novel vaccine that enhances major histocompatibility class II presentation of tumor antigen. Cancer Res 1996; 56:21-6).
The HPV16 vaccine was prepared as follows: The CTL epitope from HPV16 E749-57 (9 amino acid (aa) peptide, […], 100 μg/mouse, SEQ ID NO: 2) was mixed with synthetic T helper epitope PADRE (13 aa peptide, aK-Cha-[…]a, SEQ ID NO: 3, where “a” is D alanine and Cha is L-cyclohexylalanine, 20 ug/mouse) and with QuilA adjuvant (20 ug/mouse).

What is called IC50 is the midpoint of a concentration-inhibition curve. Regarding `C[C@@H]1CN(Cc2cc3c(c(C(F)(F)F)c2)CN(c2cccc(C4(Cc5nncn5C)COC4)c2)C3=O)CCC1(F)F` [Compound 8, (R)-6-((4,4-difluoro-3-methylpiperidin-1-yl)methyl)-2-(3-(3-((4-methyl-4H-1,2,4-triazol-3-yl)methyl)oxetan-3-yl)phenyl)-4-(trifluoromethyl)isoindolin-1-one], on Cbl-b, the IC50 is less than 1 nM. For the same compound, the tumor growth entry with TC-1 cells (Compound 8 orally D13 to D35, HPV16 vaccine s.c. D13 and D20) is given as “significant slowdown of tumor progression”. Besides, in the assay on TC-1 cells (Compound 8 orally D13 to D35 with HPV16 vaccine s.c. D13 and D20, vs. Vehicle+Vaccine), the survival result was “prolonged survival”.

These data come from US11464802B2, “3-substituted piperidine compounds for Cbl-b inhibition, and use thereof” (Nurix Therapeutics, Inc., priority 2019, dated 2022).
